Source: patent US20220233594A1, “TARGETING OTUB1 IN IMMUNOTHERAPY” (Board of Regents, The University ofTexas System, priority 2019, published 2022)

Key:
Assay type in all cases: cell-based, mouse
[1] = test system: WT or Otub1-TKO naive OT-I CD8 T cells; experiment: qRT-PCR analysis of Glut1 and Hk2 expression with AKT inhibitor; settings: stimulated with anti-CD3 plus anti-CD28; AKTi vs DMSO
Experimental: Real-time quantitative PCR. RNA was extracted with TRIzol reagent from isolated WT OT-I or Otub1-TKO OT-I CD8 T cells. The RNA samples were subjected to quantitative PCR analyses using the SYBR regent (Bio-Rad). The expression of individual genes was calculated by a standard curve method and was normalized to the expression of Actb.

[2] = test system: WT or Otub1-TKO naive OT-I CD8 T cells; experiment: Seahorse analysis of extracellular acidification rate (ECAR) with AKT inhibitor; settings: activated with anti-CD3 plus anti-CD28 for 24 h; AKTi 3 μM vs DMSO
Experimental: Metabolic assays. OCR and ECAR were measured with an XF96 extracellular flux analyzer (Seahorse Bioscience) following the manufacturer's instruction. Briefly, WT or Otub1-TKO CD8 naive T cells, either freshly isolated or in vitro activated with anti-CD3 plus anti-CD28 (for 24 h), were seeded in XF96 microplates (150,000 cells/well). The plates were quickly centrifuged to immobilize the cells. After incubation in a non-buffered assay medium (Seahorse Biosciences) in a non-CO2 incubator for 30 min, the cells were subjected to glycolysis assays with a XF glycolysis stress test kit (Seahorse Biosciences). Initial measurement of ECAR was done when cells were incubated in a glycolysis stress test medium without glucose to record the baseline. Glucose (10 mM) was then injected to induce ECAR, reflecting glycolysis rate under basal conditions. Subsequently, oligomycin (1 μM) was injected to inhibit mitochondrial ATP production and shift the energy production to glycolysis, thereby measuring the maximum glycolytic capacity (also called stressed ECAR). Finally, a glucose analog, 2-deoxy-glucose (2-DG, 100 mM) was injected to inhibit glycolysis through targeting glucose hexokinase, resulting in decreased ECAR that served as a measure to confirm the glycolysis-dependence of the detected ECAR. […]

[3] = test system: WT or Otub1-TKO naive OT-I CD8 T cells; experiment: ELISA of cytokines in culture supernatant with AKT inhibitor; settings: stimulated with anti-CD3 plus anti-CD28 for 66 h; AKTi vs DMSO
Experimental: T-cell and NK cell purification and in vitro treatments. CD8 and CD4 T cells were isolated from splenocytes with anti-CD8- or anti-CD4-conjugated magnetic beads (Miltenyi), and naive CD8 or CD4 T cells were further purified by FACS sorting to get CD44^loCD62L^hi population. The naive T cells were stimulated in replicate wells of 96-well plates (1×10^5 cells per well) for 66 h, and the culture supernatants were analyzed by ELISA (eBioScience).

O=c1[nH]c2ccccc2n1C1CCN(Cc2ccc(-c3nc4cc5[nH]cnc5cc4nc3-c3ccccc3)cc2)CC1 [AKTi]
Glut1 and Hk2 expression (qRT-PCR) [1]: blocked TCR-CD28-stimulated hyper-expression of the glycolysis-regulatory genes, Glut1 and Hk2
extracellular acidification rate (ECAR) [2]: erased the ECAR differences between WT and Otub1-TKO CD8 T cells
cytokine production (ELISA, culture supernatant) [3]: blocked
